Earlier results, collected in patent US9890223B2, “Resin particles and process for producing same, antiglare film, light-diffusing resin composition, and external preparation” (SEKISUI PLASTICS CO., LTD., priority 2010, dated 2018).

conditions: 20° C.

Row | SMILES | Solubility in Water
1 | C=C(C)C(=O)OC [Methyl methacrylate] | 1.72 % by weight
2 | C=C(C)C(=O)OC(C)(C)C [tert-butyl methyacrylate] | 0.05 % by weight
3 | C=C(C)C(=O)OCCCC [n-butyl methacrylate] | 0.04 % by weight
4 | C=C(C)C(=O)OCCCCCCCCCCCC [Lauryl methacrylate] | 0.01 or less % by weight
5 | C=C(C)C(=O)OCC(C)C [Isobutyl methacrylate] | 0.04 % by weight
